In patent US10508120B2, “TYK2 inhibitors and uses thereof” (Nimbus Lakshmi, Inc., priority 2017, dated 2019):

What was measured:
[1] = target: JAK2 kinase domain (JH1) (Homo sapiens (Human), UniProt O60674); assay: JAK2 Radioactive Kinase Assay; assay type: biochemical; conditions: compound at 10 μM, ATP 10 μM; for inhibition at 10 µM: read-out: JAK2 JH1% Inhibition @ 10 μM
How it was run: (§1)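 Read-out is percent inhibition from a radioactive kinase reaction, measured with compound at 10 μM.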

[2] = target: Tyk2/JAK2 (heterodimeric complex) (Homo sapiens (Human), UniProt P29597); assay: IL-12 Induced pSTAT4 in Human PBMC; assay type: cell-based; conditions: 1.7 ng/mL IL-12
Chain of Tyk2/JAK2 (heterodimeric complex) (P29597 whole entry, other chains not shown): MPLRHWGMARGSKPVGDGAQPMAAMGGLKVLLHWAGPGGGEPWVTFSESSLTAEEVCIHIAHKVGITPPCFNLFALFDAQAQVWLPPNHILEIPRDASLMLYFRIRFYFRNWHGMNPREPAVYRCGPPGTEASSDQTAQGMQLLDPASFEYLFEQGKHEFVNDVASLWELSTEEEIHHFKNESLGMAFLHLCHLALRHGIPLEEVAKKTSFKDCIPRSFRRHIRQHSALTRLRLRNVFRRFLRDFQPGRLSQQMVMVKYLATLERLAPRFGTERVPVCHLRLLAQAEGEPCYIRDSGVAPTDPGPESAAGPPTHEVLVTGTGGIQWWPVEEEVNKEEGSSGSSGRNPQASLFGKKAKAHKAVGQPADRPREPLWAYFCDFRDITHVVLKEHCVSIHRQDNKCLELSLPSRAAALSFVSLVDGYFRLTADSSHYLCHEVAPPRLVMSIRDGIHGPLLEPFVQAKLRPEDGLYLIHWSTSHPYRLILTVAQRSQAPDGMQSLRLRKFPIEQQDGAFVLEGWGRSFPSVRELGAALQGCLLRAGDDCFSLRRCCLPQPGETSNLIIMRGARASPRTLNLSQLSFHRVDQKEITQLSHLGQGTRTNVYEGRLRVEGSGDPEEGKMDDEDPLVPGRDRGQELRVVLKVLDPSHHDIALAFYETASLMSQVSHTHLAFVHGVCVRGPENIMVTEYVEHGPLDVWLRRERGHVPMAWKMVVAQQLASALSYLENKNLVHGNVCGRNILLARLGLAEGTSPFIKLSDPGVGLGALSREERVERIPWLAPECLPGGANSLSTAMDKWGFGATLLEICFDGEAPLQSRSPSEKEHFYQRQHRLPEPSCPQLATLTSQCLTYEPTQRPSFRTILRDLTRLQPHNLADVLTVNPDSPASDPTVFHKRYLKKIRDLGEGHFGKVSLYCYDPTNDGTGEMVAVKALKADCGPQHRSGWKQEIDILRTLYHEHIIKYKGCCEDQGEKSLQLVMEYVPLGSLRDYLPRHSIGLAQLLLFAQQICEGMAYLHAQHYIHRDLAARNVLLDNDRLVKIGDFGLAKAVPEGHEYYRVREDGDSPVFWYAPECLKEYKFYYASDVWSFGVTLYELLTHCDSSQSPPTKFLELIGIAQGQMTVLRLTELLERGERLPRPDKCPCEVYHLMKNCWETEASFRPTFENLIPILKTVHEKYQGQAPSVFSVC
Text: The IL-12 Induced pSTAT4 assay evaluates the inhibition of IL-12 induced STAT4 phophorylation mediated by Tyk2/JAK2 (heterodimeric complex).

[3] = target: Tyk2 kinase domain (DH1) (Homo sapiens (Human), UniProt P29597); assay: Tyk2 Radioactive Kinase Assay; assay type: biochemical; conditions: compound at 10 μM, ATP 10 μM; for inhibition at 10 µM: read-out: Tyk2 JH1% Inhibition @ 10 μM
Chain of Tyk2 kinase domain (DH1) (P29597 897-1176): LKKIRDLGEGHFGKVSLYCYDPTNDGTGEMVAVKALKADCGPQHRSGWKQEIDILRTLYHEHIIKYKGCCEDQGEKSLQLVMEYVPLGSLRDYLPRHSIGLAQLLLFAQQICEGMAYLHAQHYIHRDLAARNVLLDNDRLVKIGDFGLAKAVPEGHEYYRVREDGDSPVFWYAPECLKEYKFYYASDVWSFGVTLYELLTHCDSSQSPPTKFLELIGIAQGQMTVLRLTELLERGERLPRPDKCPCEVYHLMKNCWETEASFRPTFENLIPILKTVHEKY
How it was run: as §1

[4] = target: JAK2/JAK2 homdimeric complex (Homo sapiens (Human), UniProt O60674); assay: GM-CSF Induced pSTAT5 in Human PBMC; assay type: cell-based; conditions: GM-CSF 5 ng/mL for 20 minutes, pSTAT5 by MSD, read-out: PBMC_GMCSF_pSTAT5 IC50
Chain of JAK2/JAK2 homdimeric complex (O60674 whole entry, the tested form may be a part): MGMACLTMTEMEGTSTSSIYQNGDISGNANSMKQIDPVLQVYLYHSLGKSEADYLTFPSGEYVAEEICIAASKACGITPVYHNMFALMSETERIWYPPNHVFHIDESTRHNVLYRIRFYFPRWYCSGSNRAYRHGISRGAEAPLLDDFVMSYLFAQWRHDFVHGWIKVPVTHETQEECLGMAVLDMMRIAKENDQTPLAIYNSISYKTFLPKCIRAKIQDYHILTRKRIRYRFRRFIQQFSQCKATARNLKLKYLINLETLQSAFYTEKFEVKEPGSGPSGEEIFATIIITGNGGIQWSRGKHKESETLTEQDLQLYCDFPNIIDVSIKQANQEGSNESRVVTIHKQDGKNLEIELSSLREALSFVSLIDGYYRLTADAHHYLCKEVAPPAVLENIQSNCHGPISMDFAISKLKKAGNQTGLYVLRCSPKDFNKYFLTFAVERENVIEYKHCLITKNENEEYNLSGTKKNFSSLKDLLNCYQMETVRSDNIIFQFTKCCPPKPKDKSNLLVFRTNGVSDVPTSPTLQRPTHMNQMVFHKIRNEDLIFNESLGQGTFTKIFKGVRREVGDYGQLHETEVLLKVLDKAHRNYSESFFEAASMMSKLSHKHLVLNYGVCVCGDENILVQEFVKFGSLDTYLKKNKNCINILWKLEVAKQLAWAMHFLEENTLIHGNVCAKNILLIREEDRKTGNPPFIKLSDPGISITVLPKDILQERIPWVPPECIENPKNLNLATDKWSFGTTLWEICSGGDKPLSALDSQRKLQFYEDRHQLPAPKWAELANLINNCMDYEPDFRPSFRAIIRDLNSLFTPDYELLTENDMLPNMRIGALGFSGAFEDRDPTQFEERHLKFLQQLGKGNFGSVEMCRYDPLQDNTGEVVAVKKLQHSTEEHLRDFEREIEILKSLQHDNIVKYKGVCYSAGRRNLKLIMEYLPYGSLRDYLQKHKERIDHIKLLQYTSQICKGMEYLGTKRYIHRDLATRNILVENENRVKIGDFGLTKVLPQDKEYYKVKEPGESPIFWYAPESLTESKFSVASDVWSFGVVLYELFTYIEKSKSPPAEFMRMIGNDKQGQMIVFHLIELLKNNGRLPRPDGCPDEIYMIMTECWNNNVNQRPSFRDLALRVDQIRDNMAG
Chain of JAK2/JAK2 homdimeric complex (P32927 17-897 partner): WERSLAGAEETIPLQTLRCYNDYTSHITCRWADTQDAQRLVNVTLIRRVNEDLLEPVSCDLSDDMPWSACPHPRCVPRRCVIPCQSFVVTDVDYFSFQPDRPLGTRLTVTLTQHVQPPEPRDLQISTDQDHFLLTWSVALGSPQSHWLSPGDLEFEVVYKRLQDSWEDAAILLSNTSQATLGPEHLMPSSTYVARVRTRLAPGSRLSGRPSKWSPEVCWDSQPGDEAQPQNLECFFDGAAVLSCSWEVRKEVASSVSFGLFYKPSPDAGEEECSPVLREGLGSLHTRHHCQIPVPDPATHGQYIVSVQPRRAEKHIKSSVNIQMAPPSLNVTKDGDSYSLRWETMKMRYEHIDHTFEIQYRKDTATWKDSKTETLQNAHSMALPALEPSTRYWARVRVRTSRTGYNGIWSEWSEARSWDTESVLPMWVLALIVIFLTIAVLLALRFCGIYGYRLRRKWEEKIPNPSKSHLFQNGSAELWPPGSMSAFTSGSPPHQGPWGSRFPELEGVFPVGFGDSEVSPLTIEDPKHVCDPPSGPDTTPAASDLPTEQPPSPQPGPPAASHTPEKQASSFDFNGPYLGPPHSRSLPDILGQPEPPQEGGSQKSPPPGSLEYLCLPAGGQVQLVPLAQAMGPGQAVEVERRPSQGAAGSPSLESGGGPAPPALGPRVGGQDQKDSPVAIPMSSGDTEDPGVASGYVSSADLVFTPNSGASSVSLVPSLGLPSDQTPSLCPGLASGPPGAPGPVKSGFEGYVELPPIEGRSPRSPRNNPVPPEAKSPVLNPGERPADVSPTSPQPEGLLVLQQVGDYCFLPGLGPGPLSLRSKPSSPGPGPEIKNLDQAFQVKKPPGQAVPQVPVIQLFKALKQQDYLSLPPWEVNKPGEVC

[5] = target: human TYK2 (JH2domain-pseudokinase) (Homo sapiens (Human), UniProt P29597); assay: TYK2 JH2 Domain Binding Assay (KINOMEscan)
Chain of human TYK2 (JH2domain-pseudokinase) (P29597 556-888): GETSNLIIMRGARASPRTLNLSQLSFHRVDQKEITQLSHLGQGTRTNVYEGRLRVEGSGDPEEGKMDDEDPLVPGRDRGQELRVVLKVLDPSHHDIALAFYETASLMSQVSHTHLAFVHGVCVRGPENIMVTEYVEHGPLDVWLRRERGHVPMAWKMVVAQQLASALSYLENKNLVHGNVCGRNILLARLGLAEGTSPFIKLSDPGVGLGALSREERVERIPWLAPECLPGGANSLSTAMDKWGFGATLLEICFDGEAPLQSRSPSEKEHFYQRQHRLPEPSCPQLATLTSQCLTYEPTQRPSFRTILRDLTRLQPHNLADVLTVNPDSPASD
How it was run: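 Kds, run in duplicate, came from Hill fits (slope fixed at −1) of an 11-point 3-fold dilution series starting at 30,000 nM. Bead-retained TYK2 JH2 (aa G556–D888)–NFkB DBD fusion, DNA-tagged and expressed in HEK293 cells, was read by qPCR after 1 h room-temperature binding in 0.9% DMSO.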

Chain of JAK2 kinase domain (JH1) (O60674 849-1124): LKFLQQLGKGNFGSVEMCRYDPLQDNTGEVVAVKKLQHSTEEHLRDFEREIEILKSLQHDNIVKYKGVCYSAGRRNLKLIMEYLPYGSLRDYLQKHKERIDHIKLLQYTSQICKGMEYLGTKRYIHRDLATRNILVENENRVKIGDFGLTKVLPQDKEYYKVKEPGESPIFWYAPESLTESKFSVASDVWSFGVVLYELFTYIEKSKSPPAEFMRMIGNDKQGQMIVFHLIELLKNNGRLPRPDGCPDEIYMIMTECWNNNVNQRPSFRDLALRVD

Structure (SMILES) | inhibition at 10 µM [1] [%] | IC50 [2] [nM] | inhibition at 10 µM [3] [%] | IC50 [4] [nM] | Kd [5] [nM] | JAK2 JH1% Inhibition @ 10 μM [1] | Tyk2 JH1% Inhibition @ 10 μM [3]
CNc1cc(Nc2cccnc2OC)nc2c(C(=O)NCC3(CO)CC3)cnn12 [I-425] | < 50 | < 100 | < 50 | > 50000 | < 0.2 |  | 
CNc1cc(Nc2cccnc2OC2CC2)nc2c(C(=O)NCC3(CO)CC3)cnn12 [I-426] | < 50 | < 100 | < 50 | > 50000 | < 0.2 |  | 
CNc1cc(Nc2cccn(C[C@@H]3CCCCO3)c2=O)nc2c(C(=O)N[C@@H]3C[C@@H]3F)cnn12 [I-428] | < 50 | < 100 | < 50 | > 50000 | < 0.2 |  | 
CNc1cc(Nc2cccnc2OC2CC2)nc2c(C(=O)NCC(C)CO)cnn12 (stereo not shown) [I-435] | < 50 | 100 to 500 | < 50 | > 50000 | < 0.2 |  | 
CNc1cc(Nc2cccnc2OC)nc2c(C(=O)N[C@H]3C[C@@H]3O)cnn12 [I-438, N-((1S,2S)-2-hydroxycyclopropyl)-5-((2-methoxypyridin-3-yl)amino)-7-(methylamino)pyrazolo[1,5-a]pyrimidine-3-carboxamide] | < 50 | < 100 | < 50 | > 50000 | < 0.2 |  | 
CNc1cc(Nc2cccn(-c3ncccc3F)c2=O)nc2c(C(=O)NCC(C)(C)CO)cnn12 [I-510] | < 50 | < 100 | < 50 | > 50000 | < 0.2 |  | 
CNc1cc(Nc2cccn([C@H]3CC[C@H](OC)CC3)c2=O)nc2c(C(=O)NCC3(CO)CC3)cnn12 [I-545] | < 50 | 100 to 500 | < 50 | > 2500 | < 0.2 |  | 
CNc1cc(Nc2cccnc2OC2CC2)nc2c(C(=O)N[C@H]3COC[C@H]3O)cnn12 [I-547] | < 50 | 100 to 500 | < 50 | > 50000 | < 0.2 |  | 
CNc1cc(Nc2cccn(C3CC4(COC4)C3)c2=O)nc2c(C(=O)N[C@@H]3C[C@@H]3F)cnn12 [I-551, N-((1R,2S)-2-fluorocyclopropyl)-7-(methylamino)-5-((2-oxo-1-(2-oxaspiro[3.3]heptan-6-yl)-1,2-dihydropyridin-3-yl)amino)pyrazolo[1,5-a]pyrimidine-3-carboxamide] | < 50 | < 100 | < 50 | > 2500 | < 0.2 |  | 

More lines, main results first:

inhibition at 10 µM [1] [%] | IC50 [2] [nM] | inhibition at 10 µM [3] [%] | IC50 [4] [nM] | Kd [5] [nM] | Structure (SMILES) | JAK2 JH1% Inhibition @ 10 μM [1] | Tyk2 JH1% Inhibition @ 10 μM [3]
< 50 | < 100 | < 50 | > 50000 | < 0.2 | CNc1cc(Nc2cccnc2OC)nc2c(C(=O)N[C@H]3CC[C@H]3O)cnn12 [I-429] |  | 
< 50 | < 100 | < 50 | > 12500 | < 0.2 | CNc1cc(Nc2cccn([C@@H]3CCCOC3)c2=O)nc2c(C(=O)N[C@@H]3C[C@@H]3F)cnn12 [I-474] |  | 
< 50 | < 100 | < 50 | > 50000 | < 0.2 | CNc1cc(Nc2cccnc2OC)nc2c(C(=O)NC[C@H](C)CO)cnn12 [I-483] |  | 
< 50 | < 100 | < 50 | > 50000 | < 0.2 | [2H]C([2H])([2H])Oc1ncccc1Nc1cc(NC)n2ncc(C(=O)N[C@@H]3CCC[C@@H](O)C3)c2n1 [I-499] |  | 
 | < 100 |  | > 50000 | < 0.2 | [2H]C([2H])([2H])Oc1ncccc1Nc1cc(NC)n2ncc(C(=O)N[C@H]3CC[C@H](O)C3)c2n1 [I-500] | A (percent inhibition at 10 μM lower than 50) | A (percent inhibition at 10 μM lower than 50)
< 50 | < 100 | < 50 | > 50000 | < 0.2 | CNc1cc(Nc2cccn([C@H]3CC[C@H](OC)CC3)c2=O)nc2c(C(=O)N[C@H]3CC[C@H]3O)cnn12 [I-539] |  | 
< 50 | < 100 | < 50 | > 12500 | < 0.2 | CNc1cc(Nc2cccn([C@H]3CC[C@H](OC)CC3)c2=O)nc2c(C(=O)N[C@H]3CC[C@@H]3O)cnn12 [I-540] |  | 
< 50 | < 100 | < 50 | > 2500 | < 0.2 | CNc1cc(Nc2cccn([C@H]3CC[C@H](OC)CC3)c2=O)nc2c(C(=O)NCC(C)(C)CO)cnn12 [I-544] |  | 
